Test results from patent US20220324958A1, “ANTI-INFLAMMATORY PEPTIDES, PHARMACEUTICAL COMPOSITION CONTAINING SUCH PEPTIDES, AND USES THEREOF” (INSTITUTO BUTANTAN, priority 2019, published 2022).
No end group written: not given here.

Key:
[1] = system: THP-1 cells differentiated into macrophages; test: LPS-induced cytokine production in THP-1-derived macrophages (Multiplex); format: cell-based, human
Protocol: THP-1 cells differentiated into macrophages were induced with LPS (10 ng/mL) and, one hour later, treated with synthetic peptides at a concentration of 200 nM. Dexamethasone (10 μM), an inflammatory inhibitor, was used as a control. After 24 hours, the culture medium was collected to measure the IL-1β (A), IL-6 (B), TNF-α (C), and IL-10 cytokines using a Multiplex kit. * p<0.05 vs. LPS; ** p<0.01 vs. LPS; *** p<0.005 vs. LPS;
THP-1 cells differentiated into macrophages were induced with LPS (10 ng/mL) and, one hour later, treated with L4 or D3 peptide (0.05 μM, 0.2 μM, 1 μM, and 2 μM). After 24 hours, the culture medium was collected and TNF-alpha, IL-6, IL-23, and IL-8 were measured by Multiplex. (A) L4 peptide. (B) D3 peptide;
(§1) Macrophages were obtained from the differentiation of monocytes THP-1. Briefly, 1×10^7 cells were treated in the RPMI medium with 25 nM PMA for 48 hours followed by 24 hours of rest in medium without PMA. Subsequently, the cells were released and plated for the respective treatments.
The kit is based on Luminex® xMAP® technology that allows the simultaneous analysis of various cytokines. The technique is based on marked magnetic fluorescent spheres, known as MagPlex®-C microspheres. These microspheres are covered with capture antibodies specific for IL-6 […], and specifically capture the analyte in the supernatant. Each microsphere was individually identified and the results were analyzed using Luminex® Xponent® 4.2 acquisition software.
THP-1 cells differentiated into macrophages were induced with LPS (10 ng/mL) and, one hour later, treated with synthetic peptides, […] (inflammation inhibitor, 10 μM). After 24 hours, the culture medium was collected and IL-1β (A), IL-6 (B), TNF-α (C), and IL-10 were measured by Multiplex. * p<0.05 vs. LPS; ** p<0.01 vs. LPS; *** p<0.005 vs. LPS.
THP-1 cells differentiated into macrophages were induced with LPS (10 ng/mL) and, one hour after, treated with L4 (0.05 μM, 0.2 μM, 1 μM, and 2 μM). After 24 hours, the culture medium was collected and TNF-α, IL-6, IL-23, and IL-8 were measured by Multiplex. (A) L4 peptide. (B) D3 peptide.

[2] = system: human chondrocytes (NHAC-kn); test: Pro-inflammatory model of chondrocytes treated with IL-1β, cytokine release (Multiplex); format: cell-based; settings: chondrocytes treated with IL-1β (1 ng/mL)
Protocol: Values were obtained from each analyte in pg/mL from treatment with the peptides in the presence of IL-1β (1 ng/mL). The data are presented as the mean±MSE (* p<0.05 when compared to the control with IL-1β, test t, n=3).
(B) Chondrocytes were pretreated for 1 hour with IL-1β (1 ng/mL) before the addition of peptides (200 nM, 500 nM, and 1.25 μM) and an additional incubation of 24 hours before collecting the supernatants.
The primary human chondrocytes used in this assay were purchased from Lonza: Normal Human Articular Primary chondrocytes (NHAC-Kn, #CC-2550, Lot 8F3336). Chondrocyte cell culture was performed in bottles (Sarstedt T175 and T75). The cells were cultivated in DMEM culture medium (Sigma) supplemented with 10% fetal bovine serum (FBS) (Sigma), incubated in an oven at 37° C. and 5% CO2, and cultures were used in the sixth passage. The culture medium was changed every two days until the culture reached 80% confluence.
The identification and quantitative analysis of the cytokines present in the peptide treatment supernatant were performed using the Luminex xMAP Milliplex MAP Human Cytokine/Chemokine Magnetic Bead Panel Catalog #HCYTOMAG-60K technology, according to the manufacturer's instructions.
Values were obtained from each analyte in pg/mL from treatment with the peptides in the presence of IL-1β (1 ng/mL). The data are presented as the mean±MSE (*p<0.05 when compared to the control with IL-1β, test t, n=3).

[3] = system: neurons obtained from SHSY5Y cells; test: Anti-nociceptive/anti-inflammatory model, neurons stimulated with IL-1β: substance P and β-endorphin in supernatant; format: cell-based
Protocol: ANOVA and Dunnet ** p<0.01, *** p<0.001 compared to IL-1β;
(§2) The differentiation process consists of 6 stages distributed over 7 days. On the first day of the differentiation protocol (day 0), cells were seeded in collagen-coated plates. On days 1, 3, and 4 the culture medium was removed, and the differentiation medium containing 2% fetal bovine serum (FBS) and retinoic acid (RA) 10 μM) was added. On day 5, the medium was removed and the culture was incubated with culture medium and brain-derived neurotrophic factor (BDNF) (50 ng/mL). On day 7 of the differentiation process, differentiated neurons are fully ready for use (Agholme et al., 2010, with some modifications).
(§3) 7×10^3 neurons/well were incubated with 10 μM of morphine (inhibitory response control) or peptides (200 nM and 500 nM) 3 hours before or 3 hours after incubation with IL-1β (10 ng/mL) or glycated collagen (GC) (100 μg/mL) (both positive controls for the release of substance P). After 24 hours of incubation, the cell viability assay and the detection of substance P and β-endorphin in the supernatant were performed. Multiplex with magnetic spheres (MILLIPLEX® MAP Magnetic Bead Panel)
ANOVA and Dunnet ** p<0.01, *** p<0.001 compared to […]

[4] = system: neurons obtained from SHSY5Y cells; test: Anti-nociceptive/anti-inflammatory model, neurons stimulated with glycated collagen (GC): substance P and β-endorphin in supernatant; format: cell-based; settings: peptide 200 nM incubated 3 hours after GC (100 μg/mL)
Protocol: ANOVA and Dunnet * p<0.05; ** p<0.01 compared to glycated collagen (GC);
ANOVA and Dunnet * p<0.05 ** p<0.01, *** p<0.001 compared with GC;
as §2, §3
ANOVA and Dunnet * p<0.05; ** p<0.01 compared to GC.
ANOVA and Dunnet * p<0.05 ** p<0.01, *** p<0.001 compared to GC.

[5] = system: macrophages derived from THP-1; test: Cell viability (MTT) of macrophages derived from THP-1; format: cell-based, human
Protocol: as §1
The evaluation of metabolically active cells was performed using the colorimetric assay of [3-(4,5-dimethylthiazol-2-yl)-2,5-diphenyl tetrazolium] bromide (MTT, Sigma-Aldrich, St. Louis, USA), as previously reported (Twentyman et al., 1987). After each incubation period, the supernatant was removed and a MTT solution (0.5 mg/mL in phosphate-buffered saline—PBS) was added, and the cells incubated at 37° C. and 5% CO2 for 3 hours (Yang et al., 2012). After this period, the solution was removed and crystals of dark blue formazan were solubilized with 1 mL of dimethyl sulfoxide (DMSO, Merck, Darmstad) for 5 minutes. Quantification of formazan was done using an automatic ELISA microplate reader (SLT, Austria) at 570 nm.

[6] = LPS 10 ng/mL, peptide 200 nM one hour later, 24 hours, vs group treated only with LPS
[7] = dose-response 0.05, 0.2, 1 and 2 μM, LPS 10 ng/mL, 24 hours
[8] = peptide 200 nM added 3 hours after IL-1β (10 ng/mL)

Sequence	levels of IL-10 (anti-inflammatory cytokine) ([1]; LPS 10 ng/mL, peptide 200 nM one hour later, 24 hours)	levels of IL-1β [1, 6]	levels of IL-6 [1, 6]	levels of TNF-a [1, 6]	best dose regarding IL-6 release [1, 7] [µM]	best dose regarding IL-8 release [1, 7] [µM]	most effective dose concerning IL-23 release [1, 7] [µM]	most effective dose concerning TNF-α release [1, 7] [µM]	production of inflammatory cytokines in response to LPS (dose-dependent) ([1]; dose-response 0.05-2 μM, TNF-α, IL-6, IL-23, IL-8)	anti-inflammatory activity (release of G-CSF, GM-CSF, IL-6, IL-8, MCP-1, TNF-α) [2]	production of Substance P [3, 8]	production of β-endorphin [3, 8]	production of substance P induced by IL-1β ([3]; peptide 200 nM added 3 hours before IL-1β (10 ng/mL))	production of Substance P [4]	production of β-endorphin [4]	viability of macrophages derived from THP-1 [5]
DYWHDGHDLN (Designated peptide based on the motif of a group of proteins called hemoline from lepidoptera acting as an anti-inflammatory molecule.) [D3]	reduced	significantly reducing	significantly reducing	significantly reducing	1	1	1	1	reduced	anti-inflammatory activity	inhibit	induced	significantly inhibited	significantly inhibited	increased	
YAIGYSCKDYK [P4, YAIGYSCKDYK]																no effect
